Measured values: patent US12472177B2, “Bicyclic compounds and methods for their use in treating Pitt Hopkins syndrome” (NEUREN PHARMACEUTICALS LIMITED, priority 2019, dated 2025)

What was measured:
Tcf4^+/− mice [1] = experiment: Social interaction / sociability (time sniffing a novel mouse); type: in vivo; design: key to Sociability: Tukey’s Multiple Comparison Test Summary: **** = p < 0.00001; ns = not significant
Method: (§1) In vivo behavioral studies were conducted in Tcf4^+/− mutant and wildtype littermate control (WT) mice by Gen.DDI (Santiago, Chile). Littermate controls consist of the genotypes Tcf4^+/+. All Tcf4 mutant mice used were heterozygous for the Tcf4 mutation because homozygous mutations of Tcf4 result in embryonic to postnatal day 1 lethality. Ten mice per treatment group, 14 weeks of age, were used for behavioral experiments. Experiments were conducted in line with the requirements of the UK Animals (Scientific Procedures) Act, 1986. The mice were housed in plastic cages (35×30×12 cm), 5 in each and habituated to the animal facilities for at least a week before commencing the test. The room temperature (21° C.±2° C.), relative humidity (55%±5%), a 12-hour light-dark cycle (lights on 7 AM to 7 PM), and air exchange were automatically controlled. The animals had free access to commercial food pellets and water. Testing was performed during the light phase of the circadian cycle, with the order of testing being determined by the principle of conducting the most stressful tests last. Assays were designed to reproduce and expand on the original behavioral characterization of Tcf4^+/− mice. Tcf4^+/− and WT control mice were treated for 6 weeks prior to testing and tested 30 minutes following a dose of cG-2-AllylP, as described in Table 2 below.
Social recognition and social memory in humans are very important. People with PTHS show lower amounts of social recognition and memory compared with people without PTHS. […] Therefore, to determine if NNZ-2591 (cG-2-AllylP) could be effective in normalizing this condition, we carried out a series of studies in mice, in which we determined the amount of time that mice spent sniffing a novel mouse.
To carry out these studies, mice were evaluated by the amount of time spent sniffing a novel mouse upon repeated exposures, to induce familiarity, and reinstatement of high levels of sniffing when a novel stimulus animal is introduced. We measured the number of bouts of sniffing in each of the groups of animals. The time spent sniffing a novel mouse is shown on the vertical axis and the animals and treatments are shown on the horizontal axis.

Tcf4^+/− mice [2] = experiment: Tcf4^+/− mouse model of Pitt Hopkins Syndrome, all tested behaviors (summary); type: in vivo
Method: Several genetically manipulated rodent models of PTHS have been created (Thaxton et al, 2018; Sweatt, 2013). These models share a common basis around heterozygous Tcf4 (Tcf4^+/−). Haploinsufficient mice (Tcf4^+/−) have been characterized as a model system for PTHS (Kennedy et al, 2016).
as §1

Tcf4^+/− mice [3] = experiment: Open field (hypoactivity, distance travelled); type: in vivo, mouse; design: key to Open Field (Hypoactivity): Tukey’s Multiple Comparison Test Summary: **** = p < 0.00001; ns = not significant
Method: as §1
The Open Field (OF) test is a combined test that is used to determine anxiety/hyperactivity, and for habituation to a novel environment, one of the most elementary forms of learning, in which decreased exploration as a function of repeated exposure to the same environment is taken as an index of memory. This is normally studied in two sessions of exposure to the open field, a 10-min and a 24 hr habituation session.
The device used for this study is a grey PVC enclosed arena 50×30 cm divided into 10 cm squares. Mice are brought to the experimental room 5-20 min before testing. A mouse is placed into a corner square facing the corner and observed for 3 min. The number of squares entered (whole body) and rears (both front paws off the ground, but not as part of grooming) are counted. The latency to the first rear is also noted. The movement of the mouse around the field was recorded with a video tracking device for 300 s (vNT4.0, Viewpoint). The latency for the mouse to enter the brightest, central part of the field total time spent in this central region, and total activity (in terms of path length in centimetres), were recorded.
The open field (OF) test is a test used to characterize explorative behavior, anxiety, and/or hypo- and hyperactivity in animals habituated to daily handling under novel and familiar conditions. During exposure to the open field mice will habituate to the environment and thus explore less, decreasing the amount movement they show over time.
In the present experiment, we recorded movement and rearing during an initial exposure (T1), during a second exposure after 10 minutes (T2) and during a third exposure after 24 hours (T3). Failures to reduce locomotion or rearing at 10 minutes and 24 hours indicate deficits in short- and long-term memory, respectively.
To evaluate whether cG-2-AllylP is effective to treat the hypoactivity in PTHS, we carried out Open Field studies. Lower scores on measures of open field locomotion were detected in Tcf4^+/− as compared to WT littermates, across the 30-minute test session.
The relative distance travelled is shown on the vertical axis, and the animals and their treatments are shown on the horizontal axis. Wild type (WT) mice treated with vehicle alone (left column) were considered to travel 100%. […] The effect of NNZ-2591 (cG-2-AllylP) were statistically significant.

[4] = Tcf4^+/− + cG-2-AllylP (100 mg/kg) vs WT + cG-2-AllylP (200 mg/kg)
[5] = Tcf4^+/− + vehicle vs Tcf4^+/− + cG-2-AllylP (200 mg/kg)
[6] = Tcf4^+/− + vehicle vs WT + cG-2-AllylP (100 mg/kg)
[7] = WT + cG-2-AllylP (100 mg/kg) vs Tcf4^+/− + cG-2-AllylP (100 mg/kg)
[8] = WT + cG-2-AllylP (100 mg/kg) vs Tcf4^+/− + cG-2-AllylP (200 mg/kg)
[9] = WT + cG-2-AllylP (100 mg/kg) vs WT + cG-2-AllylP (200 mg/kg)
[10] = WT + cG-2-AllylP (200 mg/kg) vs Tcf4^+/− + cG-2-AllylP (200 mg/kg)
[11] = WT + vehicle vs Tcf4^+/− + cG-2-AllylP (100 mg/kg)
[12] = WT + vehicle vs Tcf4^+/− + cG-2-AllylP (200 mg/kg)
[13] = WT + vehicle vs WT + cG-2-AllylP (100 mg/kg)
[14] = WT mice, 100 mg/kg oral BID 6 weeks
[15] = WT mice, 200 mg/kg oral BID 6 weeks

Question: For `C=CC[C@]12CCCN1C(=O)CNC2=O` [cG-2-AllylP, (8aS)-Allyl-hexahydropyrrolo[1,2-a]pyrazine-1,4-dione], which “Sociability: Tukey’s Multiple Comparison Test Summary” value (Tcf4^+/− mice [1]; Tcf4^+/− + cG-02-AllylP (100 mg/kg) vs Tcf4^+/− + cG-2-AllylP (200 mg/kg)) is on record?
Answer: ns

Question: And the “Sociability: Tukey’s Multiple Comparison Test Summary” value (Tcf4^+/− mice [1]; [4])?
Answer: ns

Question: What about the “Sociability: Tukey’s Multiple Comparison Test Summary” value (Tcf4^+/− mice [1]; Tcf4^+/− + vehicle vs Tcf4^+/− + cG-2-AllylP (100 mg/kg)) of the same molecule?
Answer: **** (**** = p < 0.0001)

Question: What about the “Sociability: Tukey’s Multiple Comparison Test Summary” value (Tcf4^+/− mice [1]; [5]) of the same molecule?
Answer: **** (**** = p < 0.0001)

Question: What about the “Sociability: Tukey’s Multiple Comparison Test Summary” value (Tcf4^+/− mice [1]; [6]) of the same molecule?
Answer: **** (**** = p < 0.0001)

Question: And the “Sociability: Tukey’s Multiple Comparison Test Summary” value (Tcf4^+/− mice [1]; Tcf4^+/− + vehicle vs WT + cG-2-AllylP (200 mg/kg))?
Answer: **** (**** = p < 0.0001)

Question: And the “Behavior Normalized to WildType Levels: Sociability” value (Tcf4^+/− mice [1]; Tcf4^+/− mice, 100 mg/kg)?
Answer: ✓

Question: And the “Time spent sniffing a novel mouse” value (Tcf4^+/− mice [1]; Tcf4^+/− mice, 100 mg/kg oral BID 6 weeks, compared to Tcf4^+/− mice treated with vehicle only)?
Answer: substantial and statistically significant increases

Question: And the “Behavior Normalized to WildType Levels: Sociability” value (Tcf4^+/− mice [1]; Tcf4^+/− mice, 200 mg/kg)?
Answer: ✓

Question: And the “Time spent sniffing a novel mouse” value (Tcf4^+/− mice [1]; Tcf4^+/− mice, 200 mg/kg oral BID 6 weeks, compared to Tcf4^+/− mice treated with vehicle only)?
Answer: substantial and statistically significant increases

Question: And the “Sociability: Tukey’s Multiple Comparison Test Summary” value (Tcf4^+/− mice [1]; [7])?
Answer: ns

Question: What about the “Sociability: Tukey’s Multiple Comparison Test Summary” value (Tcf4^+/− mice [1]; [8]) of the same molecule?
Answer: ns

Question: What about the “Sociability: Tukey’s Multiple Comparison Test Summary” value (Tcf4^+/− mice [1]; [9]) of the same molecule?
Answer: ns

Question: What about the “Sociability: Tukey’s Multiple Comparison Test Summary” value (Tcf4^+/− mice [1]; [10]) of the same molecule?
Answer: ns

Question: And the “Sociability: Tukey’s Multiple Comparison Test Summary” value (Tcf4^+/− mice [1]; [11])?
Answer: ns

Question: What about the “Sociability: Tukey’s Multiple Comparison Test Summary” value (Tcf4^+/− mice [1]; [12]) of the same molecule?
Answer: ns

Question: And the “Sociability: Tukey’s Multiple Comparison Test Summary” value (Tcf4^+/− mice [1]; [13])?
Answer: ns

Question: What about the “Time spent sniffing a novel mouse” value (Tcf4^+/− mice [1]; [14]) of the same molecule?
Answer: nearly identical times

Question: What about the “Time spent sniffing a novel mouse” value (Tcf4^+/− mice [1]; [15]) of the same molecule?
Answer: nearly identical times

Question: And the “Rescue of tested behaviors of the PTHS phenotype” value (Tcf4^+/− mice [2]; Tcf4^+/− mice, 100 mg/kg for 6 weeks)?
Answer: rescued all tested behaviors, except for fear conditioning

Question: And the “Rescue of tested behaviors of the PTHS phenotype” value (Tcf4^+/− mice [2]; Tcf4^+/− mice, 200 mg/kg for 6 weeks)?
Answer: rescued all tested behaviors of the PTHS phenotype

Question: What about the “Rescue of the phenotype of the Tcf4^+/− knockout mouse model” value (Tcf4^+/− mice [2]; Tcf4^+/− mice, oral administration for 6 weeks) of the same molecule?
Answer: can rescue the phenotype

Question: And the “Impact on wild type control mice” value (Tcf4^+/− mice [2]; WT mice, oral administration for 6 weeks)?
Answer: no impact

Question: And the “Open Field (Hypoactivity): Tukey’s Multiple Comparison Test Summary” value (from here on “Open Field (Hypoactivity)”) (Tcf4^+/− mice [3]; Tcf4^+/− + cG-2-AllylP (100 mg/kg) vs Tcf4^+/− + cG-2-AllylP (200 mg/kg))?
Answer: ns

Question: And the “Open Field (Hypoactivity)” value (Tcf4^+/− mice [3]; [4])?
Answer: ns

Question: And the “Open Field (Hypoactivity)” value (Tcf4^+/− mice [3]; Tcf4^+/− + vehicle vs Tcf4^+/− + cG-2-AllylP 1 (200 mg/kg) [r21-22])?
Answer: **** (**** = p < 0.00001)

Question: And the “Open Field (Hypoactivity)” value (Tcf4^+/− mice [3]; Tcf4^+/− + vehicle vs Tcf4^+/− + cG-2-AllylP (100 mg/kg) [r23-24])?
Answer: **** (**** = p < 0.00001)

Question: And the “Open Field (Hypoactivity)” value (Tcf4^+/− mice [3]; [5])?
Answer: **** (**** = p < 0.00001)

Question: What about the “Open Field (Hypoactivity)” value (Tcf4^+/− mice [3]; [6]) of the same molecule?
Answer: **** (**** = p < 0.00001)

Question: What about the “Behavior Normalized to WildType Levels: Open Field” value (Tcf4^+/− mice [3]; Tcf4^+/− mice, 100 mg/kg) of the same molecule?
Answer: ✓

Question: What about the “Relative distance travelled (mobility), open field” value (“Relative distance travelled” for short) (Tcf4^+/− mice [3]; Tcf4^+/− mice, 100 mg/kg oral BID 6 weeks) of the same molecule?
Answer: nearly identical mobility as did WT mice treated with vehicle alone

Question: And the “Behavior Normalized to WildType Levels: Open Field” value (Tcf4^+/− mice [3]; Tcf4^+/− mice, 200 mg/kg)?
Answer: ✓

Question: And the “Relative distance travelled” value (Tcf4^+/− mice [3]; Tcf4^+/− mice, 200 mg/kg oral BID 6 weeks)?
Answer: normalized this mild to moderate hypoactivity

Question: And the “Open Field (Hypoactivity)” value (Tcf4^+/− mice [3]; [7])?
Answer: ns

Question: And the “Open Field (Hypoactivity)” value (Tcf4^+/− mice [3]; [8])?
Answer: ns

Question: What about the “Open Field (Hypoactivity)” value (Tcf4^+/− mice [3]; [9]) of the same molecule?
Answer: ns

Question: And the “Open Field (Hypoactivity)” value (Tcf4^+/− mice [3]; [10])?
Answer: ns

Question: And the “Open Field (Hypoactivity)” value (Tcf4^+/− mice [3]; [11])?
Answer: ns

Question: And the “Open Field (Hypoactivity)” value (Tcf4^+/− mice [3]; [12])?
Answer: ns

Question: What about the “Open Field (Hypoactivity)” value (Tcf4^+/− mice [3]; [13]) of the same molecule?
Answer: ns

Question: And the “Open Field (Hypoactivity)” value (Tcf4^+/− mice [3]; WT + vehicle vs WT + cG-2-AllylP (200 mg/kg))?
Answer: ns

Question: What about the “Relative distance travelled” value (Tcf4^+/− mice [3]; [14]) of the same molecule?
Answer: slightly higher mobility than WT mice treated with vehicle

Question: And the “Relative distance travelled” value (Tcf4^+/− mice [3]; [15])?
Answer: nearly the same mobility
